For this experiment, the system named is cotton leafworm, S. littoralis. In words: Insecticidal bioassay screening (castor leaf dip), second and fourth instar larvae, laboratory strain. The class given is in vivo. The settings on record: for Toxicity index %: 72 hrs, Diflubenzuron's LC50/compound's LC50 × 100; for LC50: Spodoptera littoralis, foliar. On the procedure:
Five concentrations (200, 100, 50, 25, 12.5 ppm) were designed for this synthetic compound and the reference Diflubenzuron compound as the dynamic ingredients based on mg/L via diluting the commercial formulation.
In this experiment, castor leaves are immersed in each of the previously prepared concentrations of the components for 10 seconds and then left to dry for 60 minutes. Larvae of the second and fourth instars of each checked strain are prepared with treated leaves in gauze-covered glass containers for 72 hrs. An untreated control is made in which leaves are dipped in triton x-100 and distilled water only. Then the preserved leaves were removed & fresh, untreated leaves were provided for 72 hours. Three replicates (10 larvae each) were checked for each concentration. Daily inspection was carried out for all treatments and mortality percentages were recorded 3 days (72 hours) after treatment. The average mortality percentage was corrected employing Abbott's formula. The corrected mortality rate for each of the previously synthesized compounds is statistically calculated according to Finney (1970). Through this rate, the corresponding concentration test lines (LDP lines) are assessed.

Setting [1] is: 72 h, read-out: LC50 (mg/L) at 95%, 2nd instar larvae, after 72 hrs of treatment.
The mark [2] stands for this setting: 72 h, read-out: LC50 (mg/L) at 95%, 4th instar larvae, after 72 hrs of treatment.
Setting [3] is: against Spodoptera littoralis under laboratory conditions, instar not stated.

For two compounds, Toxicity index % and LC50 results are on record in US12041933B1, “N-(pyrimidin-2-ylcarbamothioyl) benzamide as an eco-friendly insecticidal agent against Spodoptera littoralis (BOISD.)” (KING FAISAL UNIVERSITY, priority 2023, dated 2024).

Converted amounts (≈) assume the structure as drawn. Read-outs that look alike come from different tables or passages of the source.

Take `O=C(NC(=S)Nc1ncccn1)c1ccccc1` [Compound 3, N-(Pyrimidin-2-ylcarbamothioyl) benzamide]: the Toxicity index % by setting is: (2nd instar larvae) 16.7%; (4th instar larvae) 22.8%. In addition, the LC50 is, setting by setting: (72 h, 4th instars of larvae, after 72 hours of treatment) about 631 mg/L (≈ 2440 µM); under setting [1], about 96.8 mg/L (≈ 375 µM); under setting [2], 631 mg/L (≈ 2440 µM); under setting [3], 96.8 mg/L (≈ 375 µM).
In the case of `O=C(NC(=O)c1c(F)cccc1F)Nc1ccc(Cl)cc1` [Diflubenzuron, reference compound], the Toxicity index % is listed as 100% (2nd instar larvae) and 100% (4th instar larvae). For the same compound, the LC50 by setting is: under setting [1], 45.2 mg/L (≈ 145 µM); under setting [2], 144 mg/L (≈ 464 µM); under setting [3], 45.2 mg/L (≈ 145 µM).
